Measured values from US20260108545A1, “Methods of treating fibromyalgia with compositions comprising psilocybin” (Tryp Therapeutics Inc., priority 2022, published 2026).

Assays:
[1] = across species tested; cited from earlier work
[2] = rats, cited from earlier work
[3] = cited from earlier work
[4] = cited from earlier work; remark: listed apart in the source
[5] = system: rat model of formalin (FML)-induced chronic pain; test: Von Frey assay (VFA), mechanical allodynia, formalin-induced rat pain model; type: in vivo, Sprague Dawley rats
Excerpt: This example describes the effects of intravenous administration of psychedelics on pain perception and diseases associated with pain, such as nociplastic pain, in an animal model of pain. A rat model of formalin (FML)-induced chronic pain was used to investigate the effect of psilocybin administration on mechanical allodynia and thermal hyperalgesia.
Chronic pain in rats was induced by injection of formalin into the hind paw. The rats subsequently were intravenously administered psilocybin, and assessed for changes in pain perception over an extended period of time. […] The pain perception was measured in the contralateral and ipsilateral paws to assess the potential benefit of psychedelics (e.g., psilocybin) in nociplastic pain disorders. […]
Adult male Sprague Dawley rats (300-350 g) were implanted with a catheter in the jugular vein for delivery of 10 mg/kg psilocybin or 0.9% saline. Mechanical allodynia was assessed using von Frey assay (VFA) and was expressed as the threshold in grams (g). Thermal hyperalgesia was measured as paw withdrawal latency in seconds (s) using the hot plate assay (HPA) (52.5° C.). After post-surgical recovery (7-10 days), baseline responses to mechanical and thermal stimuli were measured. […] Two hours after the formalin injection, paw withdrawal thresholds in response to mechanical and thermal stimuli were measured. […]
Two types of pain perception were measured. […]

[6] = single oral administration of psilocybin at 0.225 mg/kg (Hasler et al.)

Row | Compound | brain regions with the highest levels of psilocin [1] | share of total psilocin absorbed from the digestive tract ([2]; oral psilocybin (Kalberer et al.)) | time to maximum plasma levels ([2]; post-administration (Chen et al.)) | time until psilocin is detectable in plasma ([3]; after administration of the parent compound (oral psilocybin)) [min] | absolute bioavailability of psilocin after oral administration of psilocybin ([3]; estimate (Hasler et al.)) | half-life of psilocin in blood ([3]; in vivo) [h] | average peak concentration of psilocin in plasma [3, 6] | time of peak plasma levels of psilocin [3, 6] [min] | tolerability ([4]; at the doses examined in clinical studies / healthy individuals) | rates of prolonged psychiatric symptoms of any kind following psilocybin exposure ([4]; healthy study subjects, estimated) | drug-related serious adverse events (SAEs) ([4]; oral psilocybin) | bioavailability of oral psilocybin ([3]; oral) [%] | duration of statistically significant increase in withdrawal threshold ([5]; contralateral paw, after a single psilocybin administration) [weeks] | duration of decreased tactile pain ([5]; rat model of pain)
1 | CN(C)CCc1c[nH]c2cccc(O)c12 [psilocin] | neocortex, hippocampus, and thalamus | approximately 50% | approximately 90 minutes | ≤ 20 | 52.7+/−20% | 2 to 3 | 8.2+/−2.8 ng psilocin/ml plasma | 105 ± 37 |  |  |  |  |  | 
2 | CN(C)CCc1c[nH]c2cccc(OP(=O)(O)O)c12 [psilocybin, 3-[2-(dimethylamino)ethyl]-1H-indol-4-yl]dihydrogen phosphate] |  |  |  |  |  |  |  |  | well tolerated | 0.08-0.09% | No drug-related serious adverse events (SAEs) have been reported | ~50 | 3 | up to 28 days
